Laboratory results reported in PMC9459959, “Synthesis and Activity of 2-Acyl-cyclohexane-1,3-dione Congeners Derived from Peperomia Natural Products against the Plant p-Hydroxyphenylpyruvate Dioxygenase Herbicidal Molecular Target Site” (Plants, 2022).
Where two headings read alike, the source gives them in different places.

Target: T1, HPPD (p-hydroxyphenylpyruvate dioxygenase) (Arabidopsis thaliana, UniProt P93836)
T1 construct: gene HPD; recombinant, overexpressed in E. coli, tested in total soluble protein extract; 1SP9 given only as docking structure
T1 sequence (P93836 1-445): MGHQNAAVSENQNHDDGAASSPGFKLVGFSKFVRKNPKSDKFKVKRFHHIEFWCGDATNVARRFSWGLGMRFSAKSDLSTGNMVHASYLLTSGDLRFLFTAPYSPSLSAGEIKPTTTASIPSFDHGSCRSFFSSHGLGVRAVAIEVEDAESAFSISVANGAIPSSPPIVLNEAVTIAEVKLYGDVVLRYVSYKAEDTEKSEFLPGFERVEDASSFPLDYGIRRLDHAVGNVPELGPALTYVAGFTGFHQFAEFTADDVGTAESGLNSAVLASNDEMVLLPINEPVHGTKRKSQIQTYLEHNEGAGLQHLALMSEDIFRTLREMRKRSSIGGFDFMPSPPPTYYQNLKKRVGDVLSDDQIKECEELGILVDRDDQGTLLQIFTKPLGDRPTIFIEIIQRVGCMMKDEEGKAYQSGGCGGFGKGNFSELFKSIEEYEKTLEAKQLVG
Assay: HPLC of homogentisate formed ([…] nm), dose-response
Format: biochemical

Row | Compound | IC50 (read-out: I50 (μM) ^ab) | IC50 (15 min incubation, slow tight-binding class, E. coli total soluble protein extract, positive control, read-out: I50app)
1 | Cc1noc2c1C(=O)CCC2 [1a] | > 100 µM | –
2 | CC(=O)C1C(=O)CCCC1=O [1b] | 23.1 ± 4.34 µM | –
3 | Cc1noc2c1C(=O)C(O)CC2 (stereo not shown) [1c] | > 100 µM | –
4 | CC(=O)C1=C(O)C(O)CCC1=O (stereo not shown) [1d] | > 1000 µM | –
5 | Cc1noc2c1C(=O)CC(C)(C)C2 [1e] | > 100 µM | –
6 | CC(=O)C1C(=O)CC(C)(C)CC1=O [1f] | 53.1 ± 17.1 µM | –
7 | Cc1noc2c1C(=O)C(O)C(C)(C)C2 (stereo not shown) [1g] | > 100 µM | –
8 | CC(=O)C1=C(O)C(O)C(C)(C)CC1=O (stereo not shown) [1h] | 166 ± 19.7 µM | –
9 | CCCC(=O)C1C(=O)CCCC1=O [2a] | 35.1 ± 6.24 µM | –
10 | CCCC(=O)C1C(=O)CC(C)(C)CC1=O [2b] | 16.6 ± 4.36 µM | –
11 | CCCCCc1noc2c1C(=O)CCC2 [3a] | > 100 µM | –
12 | CCCCCC(=O)C1C(=O)CCCC1=O [3b] | 2.93 ± 0.47 µM | –
13 | CCCCCc1noc2c1C(=O)C(O)CC2 (stereo not shown) [3c] | > 100 µM | –
14 | CCCCCC(=O)C1=C(O)C(O)CCC1=O (stereo not shown) [3d] | 15.8 ± 4.9 µM | –
15 | CCCCCC(=O)C1C(=O)CC(C)(C)CC1=O [3e] | 4.17 ± 0.45 µM | –
16 | CCCCCCCCCc1noc2c1C(=O)CCC2 [4a] | > 100 µM | –
17 | CCCCCCCCCC(=O)C1C(=O)CCCC1=O [4b] | 0.46 ± 0.06 µM | –
18 | CCCCCCCCCc1noc2c1C(=O)C(O)CC2 (stereo not shown) [4c] | > 100 µM | –
19 | CCCCCCCCCC(=O)C1=C(O)C(O)CCC1=O (stereo not shown) [4d] | 1.25 ± 0.4 µM | –
20 | CCCCCCCCCC(=O)C1C(=O)CC(C)(C)CC1=O [4e] | 2.66 ± 0.95 µM | –
21 | CCCCCCCCCCCc1noc2c1C(=O)CCC2 [5a] | > 100 µM | –
22 | CCCCCCCCCCCC(=O)C1C(=O)CCCC1=O [5b] | 0.3 ± 0.03 µM | –
23 | CCCCCCCCCCCc1noc2c1C(=O)C(O)CC2 (stereo not shown) [5c] | > 100 µM | –

Row | Compound | IC50 (read-out: I50 (μM) ^ab) | IC50 (15 min incubation, slow tight-binding class, E. coli total soluble protein extract, positive control, read-out: I50app)
24 | CCCCCCCCCCCC(=O)C1=C(O)C(O)CCC1=O (stereo not shown) [5d] | 0.18 ± 0.02 µM | –
25 | CCCCCCCCCCCc1noc2c1C(=O)CC(C)(C)C2 [5e] | > 100 µM | –
26 | CCCCCCCCCCCC(=O)C1C(=O)CC(C)(C)CC1=O [5f] | 0.77 ± 0.11 µM | –
27 | CCCCCCCCCCCc1noc2c1C(=O)C(O)C(C)(C)C2 (stereo not shown) [5g] | > 100 µM | –
28 | CCCCCCCCCCCCCCCCC(=O)C1C(=O)CCCC1=O [6a] | 1.58 ± 0.2 µM | –
29 | CCCCCCCCCCCCCCCCC(=O)C1C(=O)CC(C)(C)CC1=O [6b] | 1.7 ± 0.31 µM | –
30 | CC(=O)CCCC(=O)C1C(=O)CCCC1=O [7a] | 9.6 ± 1.4 µM | –
31 | CC(=O)CCCC(=O)C1C(=O)CC(C)(C)CC1=O [7b] | 17.2 ± 2.6 µM | –
32 | O=C(C=Cc1ccccc1)C1C(=O)CCCC1=O [8a] | 5.43 ± 0.58 µM | –
33 | O=C1CCCC(=O)C1C(=O)CCc1ccccc1 [8b] | 1.27 ± 0.09 µM | –
34 | O=C(/C=C/c1ccccc1)C1=C(O)C(O)CCC1=O (stereo not shown) [8c] | 59 ± 3.16 µM | –
35 | CC1(C)CC(=O)C(C(=O)C=Cc2ccccc2)C(=O)C1 [8d] | 58.6 ± 8.67 µM | –
36 | CC1(C)CC(=O)C(C(=O)CCc2ccccc2)C(=O)C1 [8e] | 2.17 ± 0.37 µM | –
37 | Cc1ccccc1C=CC(=O)C1C(=O)CCCC1=O [9a] | 1.2 ± 0.14 µM | –
38 | Cc1ccccc1CCC(=O)C1C(=O)CCCC1=O [9b] | 0.97 ± 0.09 µM | –
39 | Cc1ccccc1C=CC(=O)C1C(=O)CC(C)(C)CC1=O [9c] | 28.7 ± 8.7 µM | –
40 | COc1cccc(C=CC(=O)C2C(=O)CCCC2=O)c1 [10a] | 0.89 ± 0.1 µM | –
41 | COc1cccc(CCC(=O)C2C(=O)CCCC2=O)c1 [10b] | 0.31 ± 0.04 µM | –
42 | COc1cccc(C=CC(=O)C2C(=O)CC(C)(C)CC2=O)c1 [10c] | 6.4 ± 1.2 µM | –
43 | COc1cccc(CCC(=O)C2C(=O)CC(C)(C)CC2=O)c1 [10d] | 1.5 ± 0.17 µM | –
44 | COc1ccc(C=CC(=O)C2C(=O)CCCC2=O)cc1 [11a] | 12.3 ± 1.6 µM | –
45 | COc1ccc(CCC(=O)C2C(=O)CCCC2=O)cc1 [11b] | 2.36 ± 0.3 µM | –
46 | COc1ccc(CCC(=O)C2=C(O)C(O)CCC2=O)cc1 (stereo not shown) [11c] | 59.5 ± 11.8 µM | –

Row | Compound | IC50 (read-out: I50 (μM) ^ab) | IC50 (15 min incubation, slow tight-binding class, E. coli total soluble protein extract, positive control, read-out: I50app)
47 | COc1ccc(C=CC(=O)C2C(=O)CC(C)(C)CC2=O)cc1 [11d] | 141 ± 27 µM | –
48 | COc1ccc(CCC(=O)C2C(=O)CC(C)(C)CC2=O)cc1 [11e] | 12.9 ± 2.18 µM | –
49 | COc1ccc(C=CC(=O)C2C(=O)CCCC2=O)cc1OC [12a] | 9.16 ± 1.21 µM | –
50 | COc1ccc(CCC(=O)C2C(=O)CCCC2=O)cc1OC [12b] | 1.35 ± 0.18 µM | –
51 | COc1ccc(C=CC(=O)C2C(=O)CC(C)(C)CC2=O)cc1OC [12c] | 14.1 ± 2.21 µM | –
52 | COc1ccc(CCC(=O)C2C(=O)CC(C)(C)CC2=O)cc1OC [12d] | 8.69 ± 1.32 µM | –
53 | COc1cc(C=CC(=O)C2C(=O)CCCC2=O)cc(OC)c1OC [14a] | 2.06 ± 0.13 µM | –
54 | COc1cc(C=CC(=O)C2C(=O)CC(C)(C)CC2=O)cc(OC)c1OC [14c] | 2.22 ± 0.5 µM | –
55 | COc1cc(CCC(=O)C2C(=O)CC(C)(C)CC2=O)cc(OC)c1OC [14d] | 2.29 ± 0.25 µM | –
56 | CN(C)c1ccc(CCC(=O)C2C(=O)CCCC2=O)cc1 [15b] | 4.47 ± 0.51 µM | –
57 | CN(C)c1ccc(CCC(=O)C2C(=O)CC(C)(C)CC2=O)cc1 [15d] | 3.46 ± 0.64 µM | –
58 | O=C1CCCC(=O)C1C(=O)CCc1ccc(Cl)cc1 [16b] | 0.24 ± 0.02 µM | –
59 | CC1(C)CC(=O)C(C(=O)CCc2ccc(Cl)cc2)C(=O)C1 [16d] | 2.05 ± 0.19 µM | –
60 | O=C(C=Cc1ccc(Br)cc1)C1C(=O)CCCC1=O [17a] | 7.55 ± 0.93 µM | –
61 | O=C(/C=C/c1ccc(Br)cc1)C1=C(O)C(O)CCC1=O (stereo not shown) [17b] | 28.7 ± 4.82 µM | –
62 | CC1(C)CC(=O)C(C(=O)C=Cc2ccc(Br)cc2)C(=O)C1 [17c] | 8.34 ± 1.57 µM | –
63 | O=C(C=Cc1cccc(Br)c1)C1C(=O)CCCC1=O [18a] | 0.82 ± 0.08 µM | –
64 | CC1(C)CC(=O)C(C(=O)C=Cc2cccc(Br)c2)C(=O)C1 [18b] | 2.42 ± 0.25 µM | –
65 | O=C(C=Cc1ccc([N+](=O)[O-])cc1)C1C(=O)CCCC1=O [19a] | 7.61 ± 0.89 µM | –
66 | CC1(C)CC(=O)C(C(=O)C=Cc2ccc([N+](=O)[O-])cc2)C(=O)C1 [19b] | 27.5 ± 2.39 µM | –
67 | CS(=O)(=O)c1ccc(C(=O)C2C(=O)CCCC2=O)c(Cl)c1 [sulcotrione, reference compound] | – | 0.25 ± 0.02 µM
